Laboratory results as given in patent US20130184313A1, “NICOTINIC ACETYLCHOLINE RECEPTOR LIGANDS AND THE USES THEREOF” (The Board of Trustees of the University of Illinois, priority 2009, published 2013).
pKi: −log10 of the molar value. “And” between values parts separate entries of the source, which are not always exact repeats. Equal values may be shown once. Where a name gives a salt, the structure may show the parent alone. Marks after values point to notes of the source that are not given here.

Key:
[1] = tested on: male Balb/cJ mice; test: Forced swim test in mice; assay type: in vivo
Protocol: The subjects were male Balb/cJ mice obtained from Jackson Laboratory, Bar Harbor, Me. Mice were housed 4 per cage under controlled conditions of temperature, relative humidity and light-dark cycle with free access to food and water.
Mice were individually placed into clear glass cylinders (i.e., 15 cm tall×10 cm wide, 1 L beakers) containing 23±1° C. water 12 cm deep (approximately 800 mL). The time the animal spent immobile was recorded over a 6 min trial. Immobility was described as the postural position of floating in the water.
The mice were injected intraperitoneally (i.p.) 30 minutes before the start of the test. In another set of experiments, the test compounds were administered orally (p.o.) 30 minutes before the start of the test.
The length of time spent floating was analyzed by Analysis of Variance (ANOVA) with dose of drug as the between-subject factor and time spent immobile across the 6 min test as the dependent variable. Post-hoc comparisons between the treatment groups and control group were made using Fisher's PLSD test. A significance level of 5% was used throughout.

[2] = target: α-Bungarotoxin-insensitive (α4β2) neuronal nicotinic receptor (Rattus norvegicus, UniProt P09483+P12390); test: biochemical; details: read-out: percent inhibition of the control radioligand specific binding
Sequence of α-Bungarotoxin-insensitive (α4β2) neuronal nicotinic receptor (P09483 31-630): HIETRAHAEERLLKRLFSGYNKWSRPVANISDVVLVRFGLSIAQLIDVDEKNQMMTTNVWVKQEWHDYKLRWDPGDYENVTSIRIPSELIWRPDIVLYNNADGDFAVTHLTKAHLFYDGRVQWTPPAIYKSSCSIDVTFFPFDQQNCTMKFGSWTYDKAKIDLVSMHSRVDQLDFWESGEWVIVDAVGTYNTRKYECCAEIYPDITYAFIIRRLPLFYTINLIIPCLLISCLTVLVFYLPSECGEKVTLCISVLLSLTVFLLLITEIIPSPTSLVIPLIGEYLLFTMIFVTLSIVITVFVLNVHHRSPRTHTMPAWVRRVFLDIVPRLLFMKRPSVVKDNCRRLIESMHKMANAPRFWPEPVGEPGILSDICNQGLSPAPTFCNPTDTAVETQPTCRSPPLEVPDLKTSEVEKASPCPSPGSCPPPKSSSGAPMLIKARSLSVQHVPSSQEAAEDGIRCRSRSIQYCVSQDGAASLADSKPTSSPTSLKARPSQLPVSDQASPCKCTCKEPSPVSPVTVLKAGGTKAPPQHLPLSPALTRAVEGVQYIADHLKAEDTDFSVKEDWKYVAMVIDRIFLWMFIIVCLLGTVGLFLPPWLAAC
Sequence of α-Bungarotoxin-insensitive (α4β2) neuronal nicotinic receptor (P12390 25-500): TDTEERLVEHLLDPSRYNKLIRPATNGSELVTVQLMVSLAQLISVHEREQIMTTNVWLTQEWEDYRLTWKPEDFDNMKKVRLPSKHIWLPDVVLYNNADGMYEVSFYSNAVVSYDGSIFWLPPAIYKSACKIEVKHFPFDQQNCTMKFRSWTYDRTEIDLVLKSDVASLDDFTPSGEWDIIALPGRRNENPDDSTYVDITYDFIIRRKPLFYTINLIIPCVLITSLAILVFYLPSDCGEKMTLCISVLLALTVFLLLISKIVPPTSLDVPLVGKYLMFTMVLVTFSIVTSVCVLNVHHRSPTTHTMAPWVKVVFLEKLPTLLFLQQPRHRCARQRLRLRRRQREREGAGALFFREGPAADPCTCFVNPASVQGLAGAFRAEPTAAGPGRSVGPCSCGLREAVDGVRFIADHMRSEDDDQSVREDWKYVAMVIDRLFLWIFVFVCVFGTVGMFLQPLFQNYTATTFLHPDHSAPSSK

[3] = target: T1, α4β4 nicotinic receptor (Rattus norvegicus, UniProt P09483+P12392); assay type: binding
T1 construct: expressed in transfected cells; host or cells: stably transfected cell lines (e.g., HEK293, COS, CHO, NIH3T3)
T1 sequence (P09483 31-630): as the sequence (P09483 31-630) above
T1 sequence (P12392 21-495): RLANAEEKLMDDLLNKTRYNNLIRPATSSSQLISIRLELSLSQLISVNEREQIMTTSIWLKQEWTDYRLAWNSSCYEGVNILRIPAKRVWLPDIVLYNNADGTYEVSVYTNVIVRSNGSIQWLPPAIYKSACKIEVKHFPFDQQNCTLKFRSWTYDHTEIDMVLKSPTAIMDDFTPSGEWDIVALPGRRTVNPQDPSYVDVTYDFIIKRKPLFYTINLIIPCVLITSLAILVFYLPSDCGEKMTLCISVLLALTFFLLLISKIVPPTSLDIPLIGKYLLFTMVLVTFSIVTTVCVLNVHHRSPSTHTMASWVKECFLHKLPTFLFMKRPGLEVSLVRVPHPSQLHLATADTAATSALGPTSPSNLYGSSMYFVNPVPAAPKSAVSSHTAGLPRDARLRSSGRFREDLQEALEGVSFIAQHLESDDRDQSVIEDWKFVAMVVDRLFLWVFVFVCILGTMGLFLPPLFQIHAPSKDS
Protocol: All binding assays were performed according to procedures set forth in the University of North Carolina at Chapel Hill National Institute of Mental Health Psychoactive Drug Screening Program Assay Protocol Book (pp. 50-54; PI: Bryan L. Roth MD, PhD).
Nicotinic receptors: α2β2, α2β4, α3β2, α3β4, α4β2, α4β4, endogenous α4β2. Assay buffer: 50 mM Tris-HCl, pH 7.4. Membrane fraction source: Stably transfected cell lines (e.g., HEK293, COS, CHO, NIH3T3) (α2β2, α2β4, α3β2, α3β4, α4β2, α4β4) or rat forebrain (α4β2).
Aliquots (50 μl) of radioligand were dispensed into the wells of a 96-well plate containing 100 μl of assay buffer. Then, duplicate 50-0 aliquots of the test and reference compound dilutions were added. […]
The 250-μl reactions were incubated at room temperature and shielded from light (to prevent photolysis of light-sensitive ligands) for 4 hours, then harvested by rapid filtration onto Whatman GF/B glass fiber filters pre-soaked with 0.5% polyethyleneimine using a 96-well Brandel harvester. […] The tubes were capped, labeled, and counted by liquid scintillation counting. […]

Compound | inhibition at 0.1 µM [2] | also measured
OCCCCC#Cc1cncc(OC[C@@H]2CCN2)c1 [AMOP—H—OH] | – | effects in the forced swim test as indicated by a reduction in immobility time ([1]; mouse, in vivo, ip): positive effects; Average Immobility Time ([1]; mouse, in vivo, ip, 0.3 mg/kg): 116.7 s; Average Immobility Time ([1]; mouse, in vivo, ip, 1 mg/kg): 20.2** seconds; Average Immobility Time ([1]; mouse, in vivo, ip, 10 mg/kg): 5.3** seconds
OCC[C@H]1C[C@@H]1c1cncc(OC[C@@H]2CCN2)c1 [Example 2, 2-[(1R,2S)-2-[5-[(2(S)-Azetidinyl)methoxy]-3-pyridyl]cyclopropyl]ethanol] | 59 to 100% | effects in the forced swim test as indicated by a reduction in immobility time ([1]; mouse, in vivo, ip): positive effects; Average Immobility Time ([1]; mouse, in vivo, ip, 10 mg/kg): 44** seconds; Average Immobility Time ([1]; mouse, in vivo, ip, 20 mg/kg): 7** seconds
c1ccc(OC[C@H]2C[C@@H]2c2cncc(OC[C@@H]3CCN3)c2)cc1 [Example 11, 3-[(2(S)-Azetidinyl)methoxy]-5-[(1S,2S)-2-(phenoxymethyl)cyclopropyl]pyridine] | 59 to 100% | –
c1cncc(OC[C@H]2C[C@@H]2c2cncc(OC[C@@H]3CCN3)c2)c1 [Example 12, 3-[(2(S)-Azetidinyl)methoxy]-5-[(1S,2S)-2-[(3-pyridyloxy)methyl]cyclopropyl]pyridine] | 59 to 100% | –
c1ccc(COC[C@H]2C[C@@H]2c2cncc(OC[C@@H]3CCN3)c2)nc1 [Example 14, 3-[(2(S)-Azetidinyl)methoxy]-5-[(1S,2S)-2-[(2-pyridinylmethoxy)methyl]cyclopropyl]pyridine] | 59 to 100% | –
OCCCc1cccc(-c2cncc(OC[C@@H]3CCN3)c2)c1 [Example 15c, 3-[3-[5-[(2(S)-Azetidinyl)methoxy]-3-pyridyl]phenyl]-1-propanol] | 59 to 100% | change in immobility time compared to the vehicle ([1]; mouse, in vivo): did not show any change; reduction in immobility time compared to vehicle ([1]; mouse, in vivo): 24.5 s; effects in the forced swim test as indicated by a reduction in immobility time ([1]; mouse, in vivo, ip): positive effects; Average Immobility Time ([1]; mouse, in vivo, ip, 5 mg/kg): 110.6 s; Average Immobility Time ([1]; mouse, in vivo, ip, 10 mg/kg): 105.1** seconds and 85.3** seconds; Average Immobility Time ([1]; mouse, in vivo, ip, 20 mg/kg): 49.7** seconds
OCCCc1ccc(-c2cncc(OC[C@@H]3CCN3)c2)cc1 [Example 15d] | 59 to 100% | –
OCCCc1cccc(-c2cncc(OC[C@H]3CCN3)c2)c1 [Example 19, 3-[3-[5-[(2(R)-Azetidinyl)methoxy]-3-pyridyl]phenyl]-1-propanol] | 59 to 100% | –
CC(=O)NCCCc1cccc(-c2cncc(OC[C@@H]3CCN3)c2)c1 [Example 22, N-(3-[3-[5-[(2(S)-Azetidinyl)methoxy]-3-pyridyl]phenyl]propyl]acetamide] | 59 to 100% | –
OCCc1cccc(-c2cncc(OC[C@@H]3CCN3)c2)c1 [Example 24, 2-[3-[5-[(2(S)-Azetidinyl)methoxy]-3-pyridyl]phenyl]ethanol] | 59 to 100% | –
c1ccc(COCCc2cccc(-c3cncc(OC[C@@H]4CCN4)c3)c2)cc1 [Example 27, 3-[((2S)-Azetidinyl)methoxy]-5-[3-[2-(benzyloxy)ethyl]phenyl]pyridine] | 59 to 100% | –
OCc1cc(-c2cncc(OC[C@@H]3CCN3)c2)on1 [Example 37, 5-[5-(2(S)-Azetidinylmethoxy)-3-pyridyl]-3-isoxazolylmethanol] | 59 to 100% | –
CN1CCC[C@H]1COc1cncc(-c2cc(CCCOc3ccccc3)no2)c1 [Example 41, 3-[(1-Methyl-2(S)-pyrrolidinyl)methoxy]-5-[3-(3-phenoxypropyl)-5-isoxazolyl]pyridine Hydrochloride] | 59 to 100% | –
c1ncc(N2CC3CC3C2)cc1OC[C@@H]1CCN1 (stereo partly drawn) [Example 46, 3-[5-[(2(S)-Azetidinyl)methoxy]-3-pyridyl]-3-azabicyclo[3.1.0]hexane] | 59 to 100% | –
c1ccc(COCCC2CCN(c3cncc(OC[C@@H]4CCCN4)c3)CC2)cc1 [Example 51, 3-[4-[2-(Benzyloxy)ethyl]-1-piperidinyl]-5-[(2(S)-pyrrolidinyl)methoxy]pyridine] | 59 to 100% | –
c1ccc(OCCC2CCN(c3cncc(OC[C@@H]4CCCN4)c3)CC2)cc1 [Example 58, 3-[4-(2-Phenoxyethyl)-1-piperidinyl]-5-[(2(S)-pyrrolidinyl)methoxy]pyridine] | 8 to 28% | –
c1ccc(COCCC2CCN(c3cncc(OC[C@H]4CCCN4)c3)CC2)cc1 [Example 62, 3-[4-[2-(Benzyloxy)ethyl]-1-piperidinyl]-5-[(2(R)-pyrrolidinyl)methoxy]pyridine] | 8 to 28% | –
Oc1ccc(OCCC2CCN(c3cncc(OC[C@@H]4CCCN4)c3)CC2)cc1 [Example 70, 4-[2-[1-[5-[(2(S)-Pyrrolidinyl)methoxy]-3-pyridyl]-4-piperidinyl]ethoxy]phenol] | 8 to 28% | –
CN[C@H]1CC[C@@H](c2ccc(Cl)c(Cl)c2)c2ccccc21 [Sertraline, sertraline, reference compound] | – | Average Immobility Time ([1]; Table 2, 20 mg/kg i.p., 30 min before test, 6 min trial, vehicle 126.3): 11.99** seconds; Average Immobility Time ([1]; Table 4, 10 mg/kg i.p., 30 min before test, 6 min trial, vehicle 115.2): 23.7** seconds; Average Immobility Time ([1]; Table 5, 10 mg/kg i.p., 30 min before test, 6 min trial, vehicle 104.9): 47.8** seconds
OCC[C@H]1C[C@@H]1c1cncc(OC[C@@H]2CCN2)c1 [drawing 418] | – | pKi [3]: 7.08
